Measured values reported in US20240300997A1, “PROTEIN FOLDING AGENT” (TOHOKU UNIVERSITY, priority 2021, published 2024).

What was measured:
[1] = target: T1, native type β2m (Homo sapiens, UniProt P61769); experiment: β2m aggregation experiment by heating; type: biochemical; conditions: 1 mM thiol compound; for appearance of the solution after cooling (before centrifugation): 10 µM native type β2m, heated from 25° C. to 50° C., 10 minutes, cooled to 25° C., FIG. 8; for residual rate of the native type β2m in the supernatant liquid: after heating to 50° C. and centrifugation, absorbance at 280 nm, FIG. 9
T1 construct: made in house; host or cells: E. coli
T1 sequence (P61769 21-119): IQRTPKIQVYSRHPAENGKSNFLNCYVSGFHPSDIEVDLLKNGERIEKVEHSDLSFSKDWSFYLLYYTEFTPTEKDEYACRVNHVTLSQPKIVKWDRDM
Protocol: A buffer containing 10 µM of native type β2m (50 mM Tris-HCl, pH 7.5; 300 mM NaCl) was heated from 25° C. to 50° C., equilibrated for 10 minutes when the temperature reached 50° C., and then cooled to 25° C. For a supernatant liquid of the fraction obtained after centrifugation, a residual rate of the native type β2m in the supernatant liquid was measured by measuring an absorbance at 280 nm using a spectrophotometer.
For a buffer containing 10 µM of native type β2m (50 mM Tris-HCl, pH 7.5; 300 mM NaCl), 1 mM of the following thiol compound was added, and the obtained mixture was heated from 25° C. to 50° C., equilibrated for 10 minutes when the temperature reached 50° C., and then cooled to 25° C.
For a supernatant liquid of the fraction obtained after centrifugation, a residual rate of the native type β2m in the supernatant liquid was measured by measuring an absorbance at 280 nm using a spectrophotometer.

[2] = target: T2, reduced and denatured β2m (β2-microglobulin) (Homo sapiens, UniProt P61769); experiment: Disulfide bond introduction ability into reduced and denatured β2m (reversed-phase HPLC); type: biochemical; conditions: 1 mM thiol compound and 0.2 mM disulfide compound
T2 construct: made in house; host or cells: E. coli
T2 sequence (P61769 21-119): as above
Protocol: β2m was expressed as a recombinant by an E. coli expression system, and the collected cells were suspended in lysate A (50 mM Tris-HCl, pH 8.1; 300 mM NaCl), followed by ultrasonic disintegration. The fraction obtained after centrifugation was incubated in the presence of 8 M urea and 20 mM DTT at pH 8.0 and 50° C. for 3 hours, followed by purification by reversed-phase column chromatography (Hitachi) using a Cosmosil 5C18-AR-II column. • Reference Document 1: M. Okumura, H. Kadokura, S. Hashimoto, K. Yutani, S. Kanemura, T. Hikima, Y. Hidaka, L. Ito, K. Shiba, S. Masui, D. Imai, S. Imaoka, H. Yamaguchi, K. Inaba, Inhibition of the functional interplay between endoplasmic reticulum (ER) oxidoreduclin-1α (Ero1α) and protein-disulfide isomerase (PDI) by the endocrine disruptor bisphenol A. J Biol Chem. 2014 289(39): 27004-27018. • Reference Document 2: J. S. Weissman, P. S. Kim, Reexamination of the folding of BPTI: predominance of native intermediates. Science 1991 253 (5026): 1386-93. • Reference Document 3: M. M. Lyles, H. F. Gilbert Catalysis of the oxidative folding of ribonuclease A by protein disulfide isomerase: dependence of the rate on the composition of the redox buffer. Biochemistry. 1991 30 (3): 613-9.
A buffer having the following combinations of 1 mM of a thiol compound and 0.2 mM of a disulfide compound (50 mM Tris-HCl, pH 7.5; 300 mM NaCl) was incubated at 30° C. with 10 μM of the reduced and denatured β2m prepared in the above 8), followed by a folding reaction.
The reaction solution was dispensed over time, followed by adding an equal amount of 6 M guanidine hydrochloric acid and 1.5 M HCl, and the disulfide bond introduction reaction was quenched. In order to identify the molecular species in the reaction solution, the resultant was subjected to reversed-phase HPLC, and an oxidation type (N) and a reduction type (R) of β2m were analyzed (FIG. 4A to FIG. 4C and FIG. 5). […]
Measurement and analysis conditions of the reversed-phase HPLC are shown below. 5C18-AR2 column (4.6×150 mm; NACALAI TESQUE) was used as a column, and an absorbance at 229 nm was detected. […]

Row | Molecule | appearance of the solution after cooling (before centrifugation) [1] | residual rate of the native type β2m in the supernatant liquid [1] | reaction rate constant of the disulfide bond introduction reaction (pseudo-first-order reaction) [2]
1 | NCCNCCS [LDA-SH, 2-((2-aminoethyl)amino)ethane-1-thiol] | transparent | higher than that in the case of no additive and in the case of GSH | –
2 | NCC(CN)SSC(CN)CN [BDA-SS] | – | – | 3.59×10^−2
3 | NCC(S)CN [BDA-SH, 1,3-diaminopropane-2-thiol] | transparent | higher than that in the case of no additive and in the case of GSH | –
4 | NCCNCCSSCCNCCN [LDA-SS] | – | – | 6.96×10^−4
5 | oxidized glutathione [GSSG, reference compound] | – | – | 1.12×10^−4
